Laboratory results reported in ChEMBL document CHEMBL4673239, “Discovery of Tyrosine Kinase 2 (TYK2) Inhibitor (PF-06826647) for the Treatment of Autoimmune Diseases” (J Med Chem, 2020).

Key:
[1] = Apparent permeability in MDCK-II cells; assay type: ADME, cell-based, Canis lupus familiaris; conditions: dog
[2] = Apparent clearance in human hepatocytes assessed per million cells; assay type: ADME, cell-based, Hepatocyte; conditions: read-out: CLH
[3] = physchem; conditions: octanol/water phosphate buffer, pH 7.4
Description: Octanol/water phosphate buffer partition coefficient, log D of compound at pH 7.4 by shake-flask method

[4] = Clearance in human liver microsomes assessed per mg protein; assay type: ADME, Microsome; conditions: read-out: CLH
[5] = Fraction unbound in human plasma; assay type: ADME, cell-free
[6] = target: T1, Tyrosine-protein kinase JAK2 (Homo sapiens, UniProt O60674); experiment: Inhibition of recombinant human GST-tagged JAK2 catalytic domain (809 to 1153+9 residues) expressed in baculovirus expression system using FITC-KGGEEEEYFELVKK as substrate in presence of ATP at Km by microfluidic assay
[7] = test system: TYK2/JAK2 (Homo sapiens); conditions: Blood, time 60.0 min
[8] = species: Homo sapiens; experiment: Selectivity ratio of IC50 for recombinant human GST-tagged JAK2 catalytic domain (809 to 1153+9 residues) expressed in baculovirus expression system to IC50 for inhibition of recombinant human His-tagged TYK2 expressed in baculovirus infected Sf21 cells
[9] = target: T2, Tyrosine-protein kinase JAK3 (Homo sapiens, UniProt P52333); experiment: Inhibition of recombinant human GST-tagged JAK3 catalytic domain (781 to 1124 residues) expressed in baculovirus expression system using FITC-KGGEEEEYFELVKK as substrate in presence of ATP at Km by microfluidic assay
T2 sequence (P52333 whole entry): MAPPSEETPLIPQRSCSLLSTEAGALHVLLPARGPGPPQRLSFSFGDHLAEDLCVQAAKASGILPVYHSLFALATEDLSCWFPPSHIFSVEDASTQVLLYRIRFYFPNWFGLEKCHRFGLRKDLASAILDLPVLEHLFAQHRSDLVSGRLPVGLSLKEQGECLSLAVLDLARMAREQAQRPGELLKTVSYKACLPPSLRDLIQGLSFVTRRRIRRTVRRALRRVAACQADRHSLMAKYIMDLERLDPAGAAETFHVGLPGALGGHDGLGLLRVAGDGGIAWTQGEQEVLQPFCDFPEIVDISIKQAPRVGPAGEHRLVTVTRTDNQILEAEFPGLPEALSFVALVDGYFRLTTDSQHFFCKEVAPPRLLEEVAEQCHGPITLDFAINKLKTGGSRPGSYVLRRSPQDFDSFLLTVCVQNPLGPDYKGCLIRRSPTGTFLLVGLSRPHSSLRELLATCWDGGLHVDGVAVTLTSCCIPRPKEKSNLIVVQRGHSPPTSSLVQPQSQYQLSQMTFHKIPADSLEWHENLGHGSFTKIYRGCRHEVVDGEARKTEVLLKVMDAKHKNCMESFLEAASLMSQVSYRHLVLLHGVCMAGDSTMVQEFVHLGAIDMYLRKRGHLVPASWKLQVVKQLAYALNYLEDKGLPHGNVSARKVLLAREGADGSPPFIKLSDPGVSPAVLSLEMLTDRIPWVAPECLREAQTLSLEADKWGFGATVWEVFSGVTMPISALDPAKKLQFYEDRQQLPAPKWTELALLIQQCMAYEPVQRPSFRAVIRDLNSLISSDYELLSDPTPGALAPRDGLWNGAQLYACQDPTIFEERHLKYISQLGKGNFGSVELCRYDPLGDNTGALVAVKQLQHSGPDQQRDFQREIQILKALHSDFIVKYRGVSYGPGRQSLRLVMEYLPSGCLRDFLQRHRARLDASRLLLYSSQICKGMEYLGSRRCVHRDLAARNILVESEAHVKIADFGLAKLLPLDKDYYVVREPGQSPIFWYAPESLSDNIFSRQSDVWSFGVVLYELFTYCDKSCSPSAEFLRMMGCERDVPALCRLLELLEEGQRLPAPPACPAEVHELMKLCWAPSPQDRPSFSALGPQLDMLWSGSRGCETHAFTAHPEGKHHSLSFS

[10] = target: Tyrosine-protein kinase JAK1 (Homo sapiens, UniProt P23458)
[11] = target: Non-receptor tyrosine-protein kinase TYK2 (Homo sapiens, UniProt P29597); experiment: biochemical
[12] = target: T1, Tyrosine-protein kinase JAK2; experiment: Inhibition of JAK2 homodimer signaling pathway in human whole blood spiked with CD34 +ve cells assessed as reduction in EPO induced STAT5 phosphorylation preincubated for 45 mins followed by EPO addition and measured measured after 15 mins by immunostaining based FACS assay; assay type: tissue-based

Non-receptor tyrosine-protein kinase TYK2, sequence (P29597 whole entry): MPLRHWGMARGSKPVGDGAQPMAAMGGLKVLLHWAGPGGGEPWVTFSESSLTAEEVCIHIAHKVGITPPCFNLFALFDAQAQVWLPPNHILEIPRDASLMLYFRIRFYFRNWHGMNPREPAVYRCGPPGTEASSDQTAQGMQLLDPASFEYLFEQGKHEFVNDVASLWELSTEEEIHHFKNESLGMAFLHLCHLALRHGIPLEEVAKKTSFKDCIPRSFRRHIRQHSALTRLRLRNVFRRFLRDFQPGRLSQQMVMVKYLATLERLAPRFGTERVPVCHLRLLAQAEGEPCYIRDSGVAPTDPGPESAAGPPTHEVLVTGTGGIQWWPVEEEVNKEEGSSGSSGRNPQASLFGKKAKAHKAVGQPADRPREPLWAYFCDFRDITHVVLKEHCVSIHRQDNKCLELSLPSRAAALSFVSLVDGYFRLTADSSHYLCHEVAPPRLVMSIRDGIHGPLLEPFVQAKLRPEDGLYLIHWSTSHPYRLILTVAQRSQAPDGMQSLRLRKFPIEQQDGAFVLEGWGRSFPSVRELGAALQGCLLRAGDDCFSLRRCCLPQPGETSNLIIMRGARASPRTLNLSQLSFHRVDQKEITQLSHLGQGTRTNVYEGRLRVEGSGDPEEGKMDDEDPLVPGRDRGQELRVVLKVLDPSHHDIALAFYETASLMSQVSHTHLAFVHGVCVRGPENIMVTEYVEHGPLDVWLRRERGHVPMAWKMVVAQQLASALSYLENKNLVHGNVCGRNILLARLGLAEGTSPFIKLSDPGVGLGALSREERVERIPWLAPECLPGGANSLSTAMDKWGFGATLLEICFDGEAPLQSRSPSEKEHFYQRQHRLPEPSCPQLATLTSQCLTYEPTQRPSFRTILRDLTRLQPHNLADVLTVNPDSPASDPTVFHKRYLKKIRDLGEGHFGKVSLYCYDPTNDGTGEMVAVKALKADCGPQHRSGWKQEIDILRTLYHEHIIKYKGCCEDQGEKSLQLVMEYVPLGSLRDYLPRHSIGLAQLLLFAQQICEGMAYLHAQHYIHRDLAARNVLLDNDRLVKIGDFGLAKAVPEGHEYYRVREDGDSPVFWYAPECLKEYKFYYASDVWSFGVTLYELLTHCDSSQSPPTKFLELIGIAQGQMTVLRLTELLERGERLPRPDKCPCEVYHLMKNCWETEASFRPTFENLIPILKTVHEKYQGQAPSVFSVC
T1 sequence (O60674 whole entry, the tested form may be a part): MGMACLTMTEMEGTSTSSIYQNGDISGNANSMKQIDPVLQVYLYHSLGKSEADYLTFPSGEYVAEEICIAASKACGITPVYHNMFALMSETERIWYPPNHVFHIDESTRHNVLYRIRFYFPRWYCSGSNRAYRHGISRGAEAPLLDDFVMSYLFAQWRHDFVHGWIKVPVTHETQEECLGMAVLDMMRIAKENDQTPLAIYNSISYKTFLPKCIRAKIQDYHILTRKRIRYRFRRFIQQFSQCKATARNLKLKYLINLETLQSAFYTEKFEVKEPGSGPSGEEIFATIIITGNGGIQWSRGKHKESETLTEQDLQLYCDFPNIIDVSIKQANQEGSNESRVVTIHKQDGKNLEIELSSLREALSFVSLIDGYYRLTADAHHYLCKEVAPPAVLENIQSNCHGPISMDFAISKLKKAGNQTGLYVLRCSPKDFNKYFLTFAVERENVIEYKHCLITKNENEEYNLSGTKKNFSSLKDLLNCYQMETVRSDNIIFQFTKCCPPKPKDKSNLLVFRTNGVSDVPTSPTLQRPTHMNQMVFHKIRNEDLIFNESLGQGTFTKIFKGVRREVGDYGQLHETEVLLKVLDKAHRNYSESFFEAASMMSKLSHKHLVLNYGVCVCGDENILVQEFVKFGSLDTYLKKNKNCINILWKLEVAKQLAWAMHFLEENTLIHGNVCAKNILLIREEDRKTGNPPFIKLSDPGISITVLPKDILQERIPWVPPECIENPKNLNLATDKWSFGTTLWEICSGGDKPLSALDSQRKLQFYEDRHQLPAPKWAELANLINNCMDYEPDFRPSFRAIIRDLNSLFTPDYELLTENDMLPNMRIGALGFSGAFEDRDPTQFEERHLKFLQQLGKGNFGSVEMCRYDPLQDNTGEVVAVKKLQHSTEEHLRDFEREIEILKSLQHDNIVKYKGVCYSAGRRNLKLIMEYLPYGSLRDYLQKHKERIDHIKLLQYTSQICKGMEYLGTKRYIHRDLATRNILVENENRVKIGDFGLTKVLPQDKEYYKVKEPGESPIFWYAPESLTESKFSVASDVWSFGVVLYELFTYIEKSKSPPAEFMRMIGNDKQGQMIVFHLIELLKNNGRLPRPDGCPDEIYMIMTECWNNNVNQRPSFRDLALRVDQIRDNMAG
Tyrosine-protein kinase JAK1, sequence (P23458 whole entry): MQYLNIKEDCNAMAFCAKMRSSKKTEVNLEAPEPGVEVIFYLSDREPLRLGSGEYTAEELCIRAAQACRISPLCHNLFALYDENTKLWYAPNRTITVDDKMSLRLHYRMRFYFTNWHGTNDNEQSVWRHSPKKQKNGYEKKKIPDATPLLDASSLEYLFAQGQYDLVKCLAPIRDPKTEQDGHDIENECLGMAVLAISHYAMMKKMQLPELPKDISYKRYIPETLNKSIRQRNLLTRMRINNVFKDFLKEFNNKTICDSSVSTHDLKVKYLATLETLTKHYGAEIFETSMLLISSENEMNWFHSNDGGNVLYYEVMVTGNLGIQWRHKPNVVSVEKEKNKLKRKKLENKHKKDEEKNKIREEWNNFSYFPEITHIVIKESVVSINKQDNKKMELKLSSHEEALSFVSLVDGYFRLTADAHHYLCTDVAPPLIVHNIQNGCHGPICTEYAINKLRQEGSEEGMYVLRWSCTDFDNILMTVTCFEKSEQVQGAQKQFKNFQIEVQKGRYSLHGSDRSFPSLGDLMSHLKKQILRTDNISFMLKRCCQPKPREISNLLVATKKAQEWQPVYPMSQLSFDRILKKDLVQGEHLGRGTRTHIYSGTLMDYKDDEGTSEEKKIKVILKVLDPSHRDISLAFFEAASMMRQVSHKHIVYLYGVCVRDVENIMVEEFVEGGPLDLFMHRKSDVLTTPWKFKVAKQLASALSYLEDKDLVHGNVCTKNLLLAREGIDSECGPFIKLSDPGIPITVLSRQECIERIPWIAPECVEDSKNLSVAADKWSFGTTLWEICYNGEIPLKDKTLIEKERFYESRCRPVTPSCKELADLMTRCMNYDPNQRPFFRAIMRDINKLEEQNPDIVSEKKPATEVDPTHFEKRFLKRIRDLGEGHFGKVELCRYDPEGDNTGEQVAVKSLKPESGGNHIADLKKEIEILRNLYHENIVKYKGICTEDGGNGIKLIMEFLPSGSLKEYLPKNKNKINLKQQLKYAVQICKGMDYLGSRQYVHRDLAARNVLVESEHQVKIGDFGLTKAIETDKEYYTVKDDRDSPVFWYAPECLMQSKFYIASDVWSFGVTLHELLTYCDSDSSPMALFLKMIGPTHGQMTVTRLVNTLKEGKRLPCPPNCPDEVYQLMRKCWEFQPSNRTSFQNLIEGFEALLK

Papp [1] | logD [3] | microsomal CLint [4] | IC50 [6] | IC50 [9] | IC50 [10] | IC50 [11] | IC50 [12] | Structure (SMILES) | hepatocyte CLint [2] | fraction unbound [5] | fIC50 [7] | Ratio IC50 [8]
15 ×10⁻⁶ cm/s | 1.8 | 17 µL/min/mg |  |  |  |  |  | Cn1cc(-c2cn3nccc3c(-c3cnn([C@]4(CC#N)C[C@H](C#N)C4)c3)n2)cn1 | 12 µL/min/1e6 cells | 0.34 |  | 
20 ×10⁻⁶ cm/s | 1.9 | 11 µL/min/mg |  |  |  |  |  | Cn1cc(-c2cn3nccc3c(-c3cnn([C@]4(CC#N)C[C@@H](CC#N)C4)c3)n2)cn1 |  |  |  | 
 | 2.3 |  |  |  |  | 476 nM |  | Cn1cc(-c2cc(-c3cnn(C4(CC#N)CN(CC(F)(F)F)C4)c3)n3ncnc3c2)cn1 |  |  |  | 
22 ×10⁻⁶ cm/s | 2.3 | < 8 µL/min/mg |  |  |  |  | 1100 nM | CO[C@H]1C[C@](CC#N)(n2cc(-c3nc(-c4cnn(C)c4)cn4nccc34)cn2)C1 | 6 µL/min/1e6 cells | 0.3 |  | 
 | 1.2 |  |  |  |  | > 10000 nM |  | Cn1cc(-c2cc(-c3cnn(C4(CC#N)CN(CC(F)(F)F)C4)c3)n3cnnc3c2)cn1 |  |  |  | 
7 ×10⁻⁶ cm/s | 1.2 | < 8 µL/min/mg | 1040 nM | > 10000 nM | 5580 nM | 189 nM |  | Cn1cc(-c2cn3nccc3c(-c3cnn(C4(CC#N)CN(CCO)C4)c3)n2)cn1 |  |  |  | 
18 ×10⁻⁶ cm/s | 2.5 | 18 µL/min/mg | 65 nM | > 9850 nM | 358 nM | 10 nM |  | Cn1cc(-c2cn3nccc3c(-c3cnn(C4(CC#N)CN(CC(F)(F)F)C4)c3)n2)cn1 |  |  |  | 
11 ×10⁻⁶ cm/s | 1.5 | < 8 µL/min/mg |  |  |  |  |  | Cn1cc(-c2cn3nccc3c(-c3cnn(C4(CC#N)CN(CC#N)C4)c3)n2)cn1 |  |  |  | 
14 ×10⁻⁶ cm/s | 1.6 | 23 µL/min/mg | 45 nM | > 9590 nM | 261 nM | 10 nM |  | Cn1ccc(-c2cn3nccc3c(-c3cnn([C@]4(CC#N)C[C@H](C#N)C4)c3)n2)n1 |  |  |  | 
20 ×10⁻⁶ cm/s | 2.2 | 27 µL/min/mg |  | > 10000 nM |  |  |  | CO[C@H]1C[C@@](CC#N)(n2cc(-c3nc(-c4cnn(C)c4)cn4nccc34)cn2)C1 |  |  |  | 
6 ×10⁻⁶ cm/s | 1.6 | 44 µL/min/mg | 22 nM | 2240 nM | 22 nM | 8 nM |  | N#CC[C@]1(n2cc(-c3nc(-c4cn[nH]c4)cn4nccc34)cn2)C[C@@H](C#N)C1 |  |  |  | 
7 ×10⁻⁶ cm/s | 1.7 | 20 µL/min/mg | 31 nM | 4450 nM | 43 nM | 9 nM |  | N#CC[C@]1(n2cc(-c3nc(-c4cc[nH]n4)cn4nccc34)cn2)C[C@@H](C#N)C1 |  |  |  | 
7 ×10⁻⁶ cm/s | 1.7 | 19 µL/min/mg | 280 nM | > 10000 nM | 398 nM | 44 nM |  | N#CC[C@]1(n2cc(-c3nc(-c4cn[nH]c4)cn4nccc34)cn2)C[C@H](C#N)C1 |  |  |  | 
21 ×10⁻⁶ cm/s | 1.8 | 10 µL/min/mg |  |  |  |  |  | Cn1cc(-c2cn3nccc3c(-c3cnn([C@]4(CC#N)C[C@H](CC#N)C4)c3)n2)cn1 |  |  |  | 
4 ×10⁻⁶ cm/s | 1.2 | < 8 µL/min/mg | 1750 nM | > 10000 nM | 6110 nM | 678 nM |  | CC(=O)N1CC(CC#N)(n2cc(-c3nc(-c4cnn(C)c4)cn4nccc34)cn2)C1 |  |  |  | 
 | 2.1 |  |  |  |  | 290 nM |  | Cn1cc(-c2cc(-c3cnn(C4(CC#N)CN(CC(F)(F)F)C4)c3)n3ccnc3c2)cn1 |  |  |  | 
27 ×10⁻⁶ cm/s |  | 30 µL/min/mg | 187 nM | > 10000 nM | 933 nM | 40 nM |  | Cn1cc(-c2cn3nccc3c(-c3cnn(C4(CC#N)CN(CC5CC5)C4)c3)n2)cn1 |  |  |  | 
33 ×10⁻⁶ cm/s | 2.1 | 21 µL/min/mg | 346 nM | > 10000 nM | 2670 nM | 46 nM |  | CCN1CC(CC#N)(n2cc(-c3nc(-c4cnn(C)c4)cn4nccc34)cn2)C1 |  |  |  | 

Structure (SMILES) | Papp [1] | logD [3] | microsomal CLint [4] | IC50 [6] | IC50 [9] | IC50 [10] | IC50 [11] | IC50 [12] | hepatocyte CLint [2] | fraction unbound [5] | fIC50 [7] | Ratio IC50 [8]
Cn1ccc(-c2cn3nccc3c(-c3cnn([C@]4(CC#N)C[C@@H](C#N)C4)c3)n2)n1 | 20 ×10⁻⁶ cm/s | 1.6 | < 8 µL/min/mg | 467 nM | > 10000 nM | 2530 nM | 67 nM |  | < 2 µL/min/1e6 cells | 0.2 | 254 nM | 7
N#CC[C@]1(n2cc(-c3nc(-c4cc[nH]n4)cn4nccc34)cn2)C[C@H](C#N)C1 | 17 ×10⁻⁶ cm/s | 1.7 | < 8 µL/min/mg | 172 nM | > 10000 nM | 284 nM | 26 nM |  | 7 µL/min/1e6 cells | 0.32 | 334 nM | 7
